In article PMC3733984, “Tylophorine, a phenanthraindolizidine alkaloid isolated from Tylophora indica exerts antiangiogenic and antitumor activity by targeting vascular endothelial growth factor receptor 2–mediated angiogenesis” (Molecular Cancer, 2013):

Molecular target: VEGFR2 (KDR/Flk-1) (Homo sapiens, UniProt P35968)
Test: in vitro HTScan VEGFR2 kinase assay, colorimetric ELISA detection ([…] ATP)
Format: biochemical

Sequence of VEGFR2 (KDR/Flk-1) (P35968 20-1356): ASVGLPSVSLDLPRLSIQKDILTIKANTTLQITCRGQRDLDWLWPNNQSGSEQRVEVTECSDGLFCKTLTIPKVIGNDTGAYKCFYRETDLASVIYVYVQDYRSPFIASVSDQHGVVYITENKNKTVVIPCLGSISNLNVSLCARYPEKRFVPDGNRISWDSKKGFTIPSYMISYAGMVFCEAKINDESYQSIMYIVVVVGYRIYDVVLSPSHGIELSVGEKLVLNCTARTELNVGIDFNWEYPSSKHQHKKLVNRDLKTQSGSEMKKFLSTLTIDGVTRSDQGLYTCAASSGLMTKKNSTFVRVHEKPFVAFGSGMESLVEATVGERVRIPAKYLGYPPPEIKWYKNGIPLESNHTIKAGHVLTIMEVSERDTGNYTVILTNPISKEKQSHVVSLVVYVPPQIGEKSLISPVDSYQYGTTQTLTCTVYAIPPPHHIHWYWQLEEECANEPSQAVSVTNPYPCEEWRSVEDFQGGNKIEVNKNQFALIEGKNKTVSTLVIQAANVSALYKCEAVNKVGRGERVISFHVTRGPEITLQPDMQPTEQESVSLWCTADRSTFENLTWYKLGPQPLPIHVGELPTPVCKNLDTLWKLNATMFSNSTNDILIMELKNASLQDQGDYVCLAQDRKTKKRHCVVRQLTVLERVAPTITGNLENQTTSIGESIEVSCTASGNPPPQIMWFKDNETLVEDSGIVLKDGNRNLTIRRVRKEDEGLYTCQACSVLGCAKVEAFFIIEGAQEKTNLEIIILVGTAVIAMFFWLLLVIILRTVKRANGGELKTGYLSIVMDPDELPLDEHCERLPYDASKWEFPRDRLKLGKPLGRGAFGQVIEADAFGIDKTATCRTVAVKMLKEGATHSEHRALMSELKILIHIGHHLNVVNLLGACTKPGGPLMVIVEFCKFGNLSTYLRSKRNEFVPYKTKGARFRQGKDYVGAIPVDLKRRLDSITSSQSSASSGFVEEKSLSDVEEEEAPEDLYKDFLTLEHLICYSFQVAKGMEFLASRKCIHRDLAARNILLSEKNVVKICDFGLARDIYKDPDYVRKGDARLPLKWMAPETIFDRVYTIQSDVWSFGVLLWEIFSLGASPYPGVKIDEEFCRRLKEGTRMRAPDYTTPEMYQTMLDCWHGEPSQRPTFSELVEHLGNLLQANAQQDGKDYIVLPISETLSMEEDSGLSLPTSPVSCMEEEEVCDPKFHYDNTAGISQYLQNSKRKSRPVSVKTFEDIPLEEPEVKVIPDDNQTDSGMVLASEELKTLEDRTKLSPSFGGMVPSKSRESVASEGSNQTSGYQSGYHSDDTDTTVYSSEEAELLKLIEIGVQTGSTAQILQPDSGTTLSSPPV

Structure (SMILES): COc1cc2c3c(c4cc(OC)c(OC)cc4c2cc1OC)CN1CCC[C@@H]1C3 [Tylophorine]
- IC50: ~9.2 µM
